Where two headings read alike, the source gives them in different places. One block for each compound: values may come before it.
Assays:
[1] = background statement; cited from earlier work
[2] = Evaluation of the azeotropic behaviour: boiling temperature at 1.013 bar; type: physicochemical; details: pressure of 1.013 absolute bar
Method: The mixture of known composition and weight is introduced into a small glass cell, previously evacuated, having an internal volume equal to about 20 cm^3, equipped with metal connections, feeding valve and with a pressure transducer to evaluate the system vapour pressure.
The filling ratio by volume is initially equal to about 0.8% by v.
The temperature is measured close to the equilibrium cell by a thermometer the accuracy of which is equal to +/−0.01° C.; particular attention has been paid so that the external temperature measured in the bath is really the internal one of the cell.
By changing the composition of the mixture it is possible to evaluate possible deviations with respect to the ideality and therefore to identify the azeotropic composition which, as said, will be characterized by an absolute minimum or maximum with respect to the pure components.

[3] = solubility of propellants in solvent compositions for aerosol applications; type: physicochemical
Method: The solubility of HFC 134a, HFC 227ea and HFC 236ea with some solvent compositions for aerosol applications for the cleaning of electronic components has been studied. The solvent composition is placed in a glass test tube having thick walls, resistant to high pressures, and closed at an end by a metal valve. After cooling, the propellant is fed to the test tube and mixed with the solvent mixture. The system is introduced in a thermostatic bath and heated up to 0°, 25° and 50° C. The complete solubility of the propellant in the solvent composition used for the test has been visually observed. The solubility results of the used propellants in the solvent compositions, at the above three different temperatures, are reported in Table 7.

[4] = Removal of oily products from printed circuits, oil (1); details: 5 minutes of dipping
Method: (§1) The removal capability of oily products from printed circuits has been checked according to the following procedure:
(§2) a known amount of an oily product is uniformly spread on the surface of a printed circuit having 35×9 mm sizes; 0.100 g of oil are placed only on a single surface of the circuit, then the article is dipped into the solution to be tested.
(§3) After 5 minutes of dipping, the circuit is allowed to dry for additional 5 minutes at room temperature so as to remove the solvent traces and then is weighed again on an analytical balance.
[…] The compositions are placed in a vessel equipped with a condenser which recovers the vapour of the boiling solution.
(§4) In all the tests 30 ml of the solvent solution have been used.
(§5) The results are reported in Table 6 and are expressed as removed oil percentage.

[5] = Removal of oily products from printed circuits, oil (2); details: 5 minutes of dipping
Method: as §1, §2, §3
(§6) Tests of the solvent mixtures are carried out close to the boiling temperature. The compositions are placed in a vessel equipped with a condenser which recovers the vapour of the boiling solution.
as §4, §5

[6] = Removal of oily products from printed circuits, oil (3); details: 5 minutes of dipping
Method: as §1, §2, §3, §6, §4, §5

[7] = Removal of oily products from printed circuits, oil (4); details: 5 minutes of dipping
Method: as §1, §2, §3, §6, §4, §5

[8] = tested on: rat; assay: Acute toxicity in rat by os, LD50
[9] = tested on: rat; assay: Acute toxicity in rat by inhalation, LC50
[10] = chemical-physical properties of the hydrofluoropolyether
[11] = Preliminary studies relating to acute toxicity; type: in vivo

Compound: CC(F)(Cl)Cl [HCFC 141b]
flammability [1]: moderately flammable

Boiling T of pure Component B [2]: Boiling T = 55.78 °C
Compound: COC(C)=O [Methyl-acetate, methyl-acetate]

Compound: CCCBr [1-Bromo-propane, 1-bromo-propane]
Boiling T of pure Component B [2]: Boiling T = 69.60 °C

solubility of the propellant in the solvent composition ([3]; in HCF2OCF2CF2OCF2H/Bromo-propane (75.0) (25.0), propellant 57.2 % by wt, 0 ° C.): S
solubility of the propellant in the solvent composition ([3]; in HCF2OCF2CF2OCF2H/Bromo-propane (75.0) (25.0), propellant 57.2 % by wt, 25 ° C.): S
solubility of the propellant in the solvent composition ([3]; in HCF2OCF2CF2OCF2H/Bromo-propane (75.0) (25.0), propellant 57.2 % by wt, 50 ° C.): S
solubility of the propellant in the solvent composition ([3]; in HCF2OCF2CF2OCF2H/Isopentane (45.0) (55.0), propellant 51.2 % by wt, 0 ° C.): S
solubility of the propellant in the solvent composition ([3]; in HCF2OCF2CF2OCF2H/Isopentane (45.0) (55.0), propellant 51.2 % by wt, 25 ° C.): S
solubility of the propellant in the solvent composition ([3]; in HCF2OCF2CF2OCF2H/Isopentane (45.0) (55.0), propellant 51.2 % by wt, 50 ° C.): S
solubility of the propellant in the solvent composition ([3]; in HCF2OCF2CF2OCF2H/Methyl-acetate (75.0) (25.0), propellant 51.3 % by wt, 0 ° C.): S
solubility of the propellant in the solvent composition ([3]; in HCF2OCF2CF2OCF2H/Methyl-acetate (75.0) (25.0), propellant 51.3 % by wt, 25 ° C.): S
solubility of the propellant in the solvent composition ([3]; in HCF2OCF2CF2OCF2H/Methyl-acetate (75.0) (25.0), propellant 51.3 % by wt, 50 ° C.): S
Compound: FCC(F)(F)F [HFC 134a, 1,1,1,2-tetrafluoroethane]

Compound: FC(F)(Cl)C(F)(Cl)Cl [CFC 113, 1,1,2-trichloro-1,2,2-trifluoroethane]
Percentage of removed oil, oil type (1) ([4]; 23 ° C.): 100 % by weight
Percentage of removed oil, oil type (1) ([4]; 47 ° C.): 100 % by weight
Percentage of removed oil, oil type (2) ([5]; 23 ° C.): 99.5 % by weight
Percentage of removed oil, oil type (2) ([5]; 47 ° C.): 100 % by weight
Percentage of removed oil, oil type (3) ([6]; 23 ° C.): 100 % by weight
Percentage of removed oil, oil type (3) ([6]; 47 ° C.): 100 % by weight
Percentage of removed oil, oil type (4) ([7]; 23 ° C.): 100 % by weight
Percentage of removed oil, oil type (4) ([7]; 47 ° C.): 100 % by weight
Acute toxicity in rat by os, LD50 [8]: 43,000 ppmv/4 hours
Acute toxicity in rat by inhalation, LC50 [9]: 50,000 ppmv/4 hours
Isotherm evaporation rate at 20° C. [10]: 1 mg/min
Surface tension at 20° C. [10]: 18.1 dynes/cm
Liquid density at 25° C. [10]: 1.56 g/mL
Evaporation latent heat ([10]; at 1.013 bar): 144 kJ/kg
Flammability in air [10]: non

solubility of the propellant in the solvent composition ([3]; in HCF2OCF2CF2OCF2H/Methyl-acetate (75.0) (25.0), propellant 53.2 % by wt, 0 ° C.): S
solubility of the propellant in the solvent composition ([3]; in HCF2OCF2CF2OCF2H/Methyl-acetate (75.0) (25.0), propellant 53.2 % by wt, 25 ° C.): S
solubility of the propellant in the solvent composition ([3]; in HCF2OCF2CF2OCF2H/Methyl-acetate (75.0) (25.0), propellant 53.2 % by wt, 50 ° C.): S
Compound: FC(C(F)(F)F)C(F)(F)F [HFC 227ea, 1,1,1,2,3,3,3-heptafluoropropane]

Compound: FC(F)OC(F)(F)C(F)(F)OC(F)F [HCF2OCF2CF2OCF2H, 1-difluoromethoxy-1,1,2,2-tetrafluoroethyl difluoromethyl ether]
acute toxicity, biological activity [11]: low biological activity
Acute toxicity in rat by os, LD50 [8]: >5,000 ppmv/4 hours
Acute toxicity in rat by inhalation, LC50 [9]: >32,000 ppmv/4 hours
dehydrofluorination reactions (chemical stability) [10]: does not undergo dehydrofluorination reactions
Isotherm evaporation rate at 20° C. [10]: 0.6 mg/min
Surface tension at 20° C. [10]: 15.5 dynes/cm
Liquid density at 25° C. [10]: 1.60 g/mL
Boiling temperature ([10]; at 1.013 bar): 58.21 °C
Evaporation latent heat ([10]; at 1.013 bar): 139 kJ/kg
Flammability in air [10]: non

Compound: FC(F)C(F)C(F)(F)F (centres unmarked) [HFC 236ea, 1,1,1,2,3,3-hexafluoropropane]
solubility of the propellant in the solvent composition [3]: S
